Values joined by “and” are separate entries in the source; they are usually repeats but may differ in a detail not shown here. Equal values may be shown once. Inconclusive results and toxic doses are left out.

This assay relates to L1210 leukemia ip in BDF1 mice, survival T/C. The assay is described as follows: NCI In Vivo Anticancer Drug Screen. Data for tumor model L1210 Leukemia (intraperitoneal) in B6D2F1 (BDF1) mice. Conditions: endpoint: mean survival time, higher = longer survival. Put shortly:
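Survival endpoint. Drug-treated group vs vehicle group, expressed as T divided by C. Tumor passaged by transplantation.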

[1] abbreviates: dose: 10.0 mg/kg/injection, schedule: Q01DX001 (ip), vehicle: carboxymethylcellulose (CMC).
Setting [2] is: dose: 100.0 mg/kg/injection, schedule: Q04DX003 (ip), vehicle: saline.
Setting [3] is: dose: 200.0 mg/kg/injection, schedule: Q04DX003 (ip), vehicle: saline.

Take `O=[N+]([O-])c1cc(S(=O)(=O)F)ccc1F`: the T/C reads like this: (dose: 0.07 mg/kg/injection, schedule: Q01DX009 (ip), vehicle: carboxymethylcellulose (CMC)) 97 % of control; (dose: 0.15 mg/kg/injection, schedule: Q01DX009 (ip), vehicle: carboxymethylcellulose (CMC)) 100 % of control; (dose: 0.31 mg/kg/injection, schedule: Q01DX009 (ip), vehicle: carboxymethylcellulose (CMC)) 100 % of control; (dose: 0.31 mg/kg/injection, schedule: Q04DX003 (ip), vehicle: carboxymethylcellulose (CMC)) 92 % of control; (dose: 0.46 mg/kg/injection, schedule: Q01DX009 (ip), vehicle: carboxymethylcellulose (CMC)) 103 % of control; (dose: 0.62 mg/kg/injection, schedule: Q04DX003 (ip), vehicle: carboxymethylcellulose (CMC)) 92 % of control. In addition, the T/C was 96 % of control (dose: 0.7 mg/kg/injection, schedule: Q01DX009 (ip), vehicle: carboxymethylcellulose (CMC)); 92 % of control (dose: 1.05 mg/kg/injection, schedule: Q01DX009 (ip), vehicle: carboxymethylcellulose (CMC)); 94 % of control (dose: 1.5 mg/kg/injection, schedule: Q01DX009 (ip), vehicle: other); 89 % of control (dose: 2.3 mg/kg/injection, schedule: Q01DX009 (ip), vehicle: other); 89 % of control (dose: 3.4 mg/kg/injection, schedule: Q01DX009 (ip), vehicle: other); 87 % of control (dose: 5.0 mg/kg/injection, schedule: Q01DX009 (ip), vehicle: other). The T/C under setting [1] is 90 % of control.

For `O=c1[nH]cc(S)c(=O)[nH]1`, the T/C was 96 % of control (dose: 100.0 mg/kg/injection, schedule: Q01DX001 (ip), vehicle: carboxymethylcellulose (CMC)); 102 % of control (dose: 100.0 mg/kg/injection, schedule: Q01DX015 (ip), vehicle: carboxymethylcellulose (CMC)); 100 % of control (dose: 200.0 mg/kg/injection, schedule: Q01DX001 (ip), vehicle: carboxymethylcellulose (CMC)).

Turning to `Clc1ccc(CSSCc2ccc(Cl)cc2Cl)c(Cl)c1`, the T/C is, setting by setting: (dose: 100.0 mg/kg/injection, schedule: Q04DX002 (ip), vehicle: gum acacia) 95 % of control; (dose: 200.0 mg/kg/injection, schedule: Q04DX002 (ip), vehicle: gum acacia) 116 % of control; (dose: 400.0 mg/kg/injection, schedule: Q04DX002 (ip), vehicle: gum acacia) 100 % of control.

In the case of `COC(=O)c1ccc(C)c(-n2c(-c3ccccc3)nnc2-c2ccccc2)c1`, the T/C reads like this: (dose: 50.0 mg/kg/injection, schedule: Q01DX009 (ip), vehicle: Klucel (hydroxypropylcellulose) (HPC)) 102 % of control; (dose: 100.0 mg/kg/injection, schedule: Q01DX009 (ip), vehicle: Klucel (hydroxypropylcellulose) (HPC)) 93 % of control; (dose: 100.0 mg/kg/injection, schedule: Q04DX003 (ip), vehicle: Klucel (hydroxypropylcellulose) (HPC)) 95 % of control; (dose: 200.0 mg/kg/injection, schedule: Q01DX009 (ip), vehicle: Klucel (hydroxypropylcellulose) (HPC)) 95 % of control; (dose: 200.0 mg/kg/injection, schedule: Q04DX003 (ip), vehicle: Klucel (hydroxypropylcellulose) (HPC)) 92 % of control; (dose: 400.0 mg/kg/injection, schedule: Q04DX003 (ip), vehicle: Klucel (hydroxypropylcellulose) (HPC)) 97 % of control.

With `N#CC(N)c1ccccc1` (stereo unspecified), the T/C (dose: 75.0 mg/kg/injection, schedule: Q01DX001 (ip), vehicle: saline) was 103 % of control.

For `CC(=O)OCCC[P+](c1ccccc1)(c1ccccc1)c1ccccc1`, the T/C runs as follows: (dose: 100.0 mg/kg/injection, schedule: Q01DX001 (ip), vehicle: saline) 102 % of control; (dose: 200.0 mg/kg/injection, schedule: Q01DX001 (ip), vehicle: saline) 110 % of control.

Consider `CC(O)C1CCCNC1` (stereo unspecified), for which the T/C was 108 % of control under setting [2] and 97 % of control under setting [3].

Turning to `N#Cc1ncc(C(Cl)Cl)nc1Cl`, the T/C by setting is: under setting [2], 101 % of control; under setting [3], 92 % of control.

Consider `O=C(Nc1ccc(C2=NCCN2)cc1)c1cc(C(=O)Nc2ccc(C3=NCCN3)cc2)ncn1`, for which the T/C (dose: 0.47 mg/kg/injection, schedule: Q01DX015 (ip), vehicle: methylcellulose (MC)) is 96 % of control; the T/C (dose: 0.93 mg/kg/injection, schedule: Q01DX015 (ip), vehicle: methylcellulose (MC)) was 108 % of control; the T/C (dose: 0.93 mg/kg/injection, schedule: Q01DX Z (ip), vehicle: carboxymethylcellulose (CMC)) is 94 % of control; the T/C (dose: 1.87 mg/kg/injection, schedule: Q01DX015 (ip), vehicle: methylcellulose (MC)) is 100 % of control and 101 % of control; the T/C (dose: 1.87 mg/kg/injection, schedule: Q01DX Z (ip), vehicle: carboxymethylcellulose (CMC)) was 120 % of control; the T/C (dose: 3.75 mg/kg/injection, schedule: Q01DX015 (ip), vehicle: methylcellulose (MC)) is 102 % of control and 116 % of control. Also, the T/C is 112 % of control (dose: 6.25 mg/kg/injection, schedule: Q01DX001 (ip), vehicle: methylcellulose (MC)); 116 % of control and 118 % of control (dose: 7.5 mg/kg/injection, schedule: Q01DX015 (ip), vehicle: methylcellulose (MC)); 108 % of control (dose: 12.5 mg/kg/injection, schedule: Q01DX001 (ip), vehicle: methylcellulose (MC)); 153 % of control (dose: 15.0 mg/kg/injection, schedule: Q01DX015 (ip), vehicle: other); 303 % of control (dose: 15.0 mg/kg/injection, schedule: Q01DX Z (ip), vehicle: carboxymethylcellulose (CMC)); 104 % of control (dose: 25.0 mg/kg/injection, schedule: Q01DX001 (ip), vehicle: methylcellulose (MC)). Moreover, the T/C reads like this: (dose: 30.0 mg/kg/injection, schedule: Q01DX015 (ip), vehicle: methylcellulose (MC)) 93 % of control; (dose: 30.0 mg/kg/injection, schedule: Q01DX015 (ip), vehicle: other) 241 % of control; (dose: 30.0 mg/kg/injection, schedule: Q01DX Z (ip), vehicle: carboxymethylcellulose (CMC)) 224 % of control; (dose: 36.0 mg/kg/injection, schedule: Q01DX001 (ip), vehicle: carboxymethylcellulose (CMC)) 118 % of control; (dose: 36.0 mg/kg/injection, schedule: Q01DX001 (ip), vehicle: other) 112 % of control; (dose: 50.0 mg/kg/injection, schedule: Q01DX001 (ip), vehicle: methylcellulose (MC)) 122 % of control. The T/C is 118 % of control (dose: 53.0 mg/kg/injection, schedule: Q01DX001 (ip), vehicle: carboxymethylcellulose (CMC)); 121 % of control (dose: 53.0 mg/kg/injection, schedule: Q01DX001 (ip), vehicle: other); 102 % of control (dose: 60.0 mg/kg/injection, schedule: Q01DX015 (ip), vehicle: other); 154 % of control (dose: 60.0 mg/kg/injection, schedule: Q01DX Z (ip), vehicle: carboxymethylcellulose (CMC)); 124 % of control (dose: 79.0 mg/kg/injection, schedule: Q01DX001 (ip), vehicle: carboxymethylcellulose (CMC)); 121 % of control (dose: 120.0 mg/kg/injection, schedule: Q01DX Z (ip), vehicle: carboxymethylcellulose (CMC)). For the same compound, the T/C runs as follows: (dose: 180.0 mg/kg/injection, schedule: Q01DX001 (ip), vehicle: carboxymethylcellulose (CMC)) 157 % of control; (dose: 180.0 mg/kg/injection, schedule: Q01DX001 (ip), vehicle: other) 162 % of control; (dose: 270.0 mg/kg/injection, schedule: Q01DX001 (ip), vehicle: carboxymethylcellulose (CMC)) 169 % of control; (dose: 405.0 mg/kg/injection, schedule: Q01DX001 (ip), vehicle: carboxymethylcellulose (CMC)) 193 % of control.

Regarding `CC(CC(c1ccccc1)c1ccccc1)[N+](C)(C)C` (stereo unspecified), the T/C is, setting by setting: (dose: 5.0 mg/kg/injection, schedule: Q01DX001 (ip), vehicle: carboxymethylcellulose (CMC)) 104 % of control; under setting [1], 101 % of control; (dose: 20.0 mg/kg/injection, schedule: Q01DX001 (ip), vehicle: carboxymethylcellulose (CMC)) 95 % of control; (dose: 40.0 mg/kg/injection, schedule: Q01DX001 (ip), vehicle: carboxymethylcellulose (CMC)) 93 % of control; (dose: 80.0 mg/kg/injection, schedule: Q01DX001 (ip), vehicle: carboxymethylcellulose (CMC)) 98 % of control.

Turning to `CCOC(=O)/C(Cc1cnc2ccccc2n1)=N\O`, the T/C (dose: 100.0 mg/kg/injection, schedule: Q01DX009 (ip), vehicle: saline with Tween-80) was 94 % of control; the T/C (dose: 100.0 mg/kg/injection, schedule: Q04DX003 (ip), vehicle: saline with Tween-80) is 105 % of control; the T/C (dose: 200.0 mg/kg/injection, schedule: Q01DX009 (ip), vehicle: saline with Tween-80) is 96 % of control; the T/C (dose: 200.0 mg/kg/injection, schedule: Q04DX003 (ip), vehicle: saline with Tween-80) was 100 % of control; the T/C (dose: 400.0 mg/kg/injection, schedule: Q01DX009 (ip), vehicle: saline with Tween-80) was 100 % of control; the T/C (dose: 400.0 mg/kg/injection, schedule: Q04DX003 (ip), vehicle: saline with Tween-80) is 105 % of control.

The record behind these values is PubChem BioAssay AID248 (DTP/NCI, 2004).
